Experiments:
[1] = biological target: CDK2 (Homo sapiens (Human), UniProt P24941); assay: CDK2 NanoBiT assay (HiBiT-tagged CDK2 degradation); type: cell-based; details: C-terminal HiBiT tag on CDK2, LgBiT, 24 hours
How it was run: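 HEK293 line with CRISPR knock-in C-terminal HiBiT-tagged CDK2 and stable LgBiT, preincubated 16 h with live-cell substrate, then compound-treated 24 h at 37° C, 5% CO2 (30 μM stock). Luminescence normalized to plate negative and positive controls; EC50 from 3-parameter logistic fit, Hill slope 1.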

[2] = biological target: CRBN-DDB1 (Homo sapiens (Human), UniProt Q96SW2); assay: CRBN HTRF assay (Cy5-Thalidomide probe displacement); type: binding; details: CRBN-DDB1 2.5 nM, Cy5-Thalidomide 100 nM, 30 min; Ki from geometric mean IC50 by Cheng-Prusoff
Sequence of CRBN-DDB1 (Q96SW2 whole entry): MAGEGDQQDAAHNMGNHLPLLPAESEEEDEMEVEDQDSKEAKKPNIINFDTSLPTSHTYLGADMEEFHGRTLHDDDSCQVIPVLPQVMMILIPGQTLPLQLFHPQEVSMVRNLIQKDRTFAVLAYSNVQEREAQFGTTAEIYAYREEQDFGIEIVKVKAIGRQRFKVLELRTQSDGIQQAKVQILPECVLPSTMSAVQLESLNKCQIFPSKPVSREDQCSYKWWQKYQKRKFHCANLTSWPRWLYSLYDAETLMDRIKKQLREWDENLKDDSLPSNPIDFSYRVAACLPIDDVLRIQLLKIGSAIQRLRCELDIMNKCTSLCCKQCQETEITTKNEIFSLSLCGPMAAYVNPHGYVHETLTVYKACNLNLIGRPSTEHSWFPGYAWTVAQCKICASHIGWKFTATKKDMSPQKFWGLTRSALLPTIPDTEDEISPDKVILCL
Sequence of CRBN-DDB1 (Q16531 whole entry partner): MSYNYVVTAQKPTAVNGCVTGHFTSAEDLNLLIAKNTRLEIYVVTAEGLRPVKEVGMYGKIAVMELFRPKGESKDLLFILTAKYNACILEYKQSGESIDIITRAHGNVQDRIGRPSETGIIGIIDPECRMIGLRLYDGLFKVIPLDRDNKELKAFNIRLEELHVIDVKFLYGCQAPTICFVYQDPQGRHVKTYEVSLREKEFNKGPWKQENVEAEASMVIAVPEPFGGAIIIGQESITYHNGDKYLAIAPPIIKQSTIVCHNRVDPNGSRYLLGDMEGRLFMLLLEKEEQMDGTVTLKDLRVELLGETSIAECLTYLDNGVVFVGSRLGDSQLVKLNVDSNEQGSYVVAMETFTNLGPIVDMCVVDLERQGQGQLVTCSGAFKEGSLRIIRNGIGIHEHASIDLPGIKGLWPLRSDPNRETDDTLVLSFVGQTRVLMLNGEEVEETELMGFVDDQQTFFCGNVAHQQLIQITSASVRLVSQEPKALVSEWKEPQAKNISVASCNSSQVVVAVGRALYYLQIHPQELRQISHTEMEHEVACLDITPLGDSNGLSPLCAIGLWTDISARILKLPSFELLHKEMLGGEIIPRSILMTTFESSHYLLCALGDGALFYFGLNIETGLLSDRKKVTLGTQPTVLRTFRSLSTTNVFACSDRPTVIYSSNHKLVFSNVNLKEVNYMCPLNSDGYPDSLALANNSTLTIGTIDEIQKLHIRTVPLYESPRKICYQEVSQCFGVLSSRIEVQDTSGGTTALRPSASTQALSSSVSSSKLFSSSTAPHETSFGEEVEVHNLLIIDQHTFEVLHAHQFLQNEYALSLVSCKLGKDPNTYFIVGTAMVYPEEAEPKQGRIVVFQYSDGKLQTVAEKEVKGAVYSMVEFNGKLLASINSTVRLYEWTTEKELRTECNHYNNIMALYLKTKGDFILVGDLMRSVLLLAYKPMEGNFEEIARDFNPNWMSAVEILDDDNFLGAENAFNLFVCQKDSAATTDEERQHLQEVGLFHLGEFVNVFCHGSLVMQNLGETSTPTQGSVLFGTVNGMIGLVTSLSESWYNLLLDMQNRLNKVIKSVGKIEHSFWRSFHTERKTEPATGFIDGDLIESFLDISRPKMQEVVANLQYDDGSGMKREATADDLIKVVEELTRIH
How it was run: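 HTRF displacement of Cy5-thalidomide probe (100 nM) from His-CRBN-DDB1 (2.5 nM) with anti-His terbium cryptate, in HEPES/NaCl/TCEP/EDTA/Tween20 buffer. 10-point 1:3 compound series, 30 min at ambient temperature; signal normalised to DMSO and lenalidomide controls, IC50 fitted and Ki derived by Cheng-Prusoff.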

Row | SMILES | Dmax ([1]; HEK293, HEK293 clonal line) | Ki [2] | Dmax ([1]; HEK293 clonal line)
1 | O=C1CCC(c2c(F)cc(N3CC(NC(=O)OC[C@@H]4C[C@H]5CC[C@@H]4C5)C3)cc2F)C(=O)N1 (stereo partly drawn) [Compound 3, (1R,2R,4S)-bicyclo[2.2.1]heptan-2-ylmethyl (1-(4-(2,6-dioxopiperidin-3-yl)-3,5-difluorophenyl)azetidin-3-yl)carbamate] | > 80% | ≤ 100 nM | 
2 | O=C1CCC(c2c(F)cc([C@@H]3C[C@H]3NC(=O)OCC3CC4(CCC4)C3)cc2F)C(=O)N1 (some centres unmarked) [Compound 38] | > 80% | ≤ 100 nM | 
3 | COc1ccc(-c2nnc(NC3CN(c4cc(F)c(C5CCC(=O)NC5=O)c(F)c4)C3)o2)cc1 (centres unmarked) [Compound 98, 3-(2,6-difluoro-4-(3-((5-(4-methoxyphenyl)-1,3,4-oxadiazol-2-yl)amino)azetidin-1-yl)phenyl)piperidine-2,6-dione] | > 80% | ≤ 100 nM | 
4 | O=C1CCC(c2c(F)cc(N3CC(NC(=O)OCc4ccc(OC(F)(F)F)cc4)C3)cc2F)C(=O)N1 (centres unmarked) [Compound 35, 4-(trifluoromethoxy)benzyl (1-(4-(2,6-dioxopiperidin-3-yl)-3,5-difluorophenyl)azetidin-3-yl)carbamate] | > 80% | 100 to 1000 nM | 
5 | Cc1cccc(N(C)C(=O)C23CC(OC(=O)NC4CN(c5cc(F)c(C6CCC(=O)NC6=O)c(F)c5)C4)(C2)C3)c1 (centres unmarked) [Compound 134, 3-(methyl(m-tolyl)carbamoyl)bicyclo[1.1.1]pentan-1-yl (1-(4-(2,6-dioxopiperidin-3-yl)-3,5-difluorophenyl)azetidin-3-yl)carbamate] | 50 to 80% | ≤ 100 nM | 
6 | N#Cc1ccc(C(=O)N2CC(OC(=O)NC3CN(c4cc(F)c(C5CCC(=O)NC5=O)c(F)c4)C3)C2)cc1 (centres unmarked) [Compound 20, 1-(4-cyanobenzoyl)azetidin-3-yl (1-(4-(2,6-dioxopiperidin-3-yl)-3,5-difluorophenyl)azetidin-3-yl)carbamate] | 10 to 50% | ≤ 100 nM | 
7 | O=C1CCC(c2c(Cl)cc(N3CC(NC(=O)OCC4CC5(CCC5)C4)C3)cc2Cl)C(=O)N1 (centres unmarked) [Compound 28, spiro[3.3]heptan-2-ylmethyl (1-(3,5-dichloro-4-(2,6-dioxopiperidin-3-yl)phenyl)azetidin-3-yl)carbamate] | > 80% | ≤ 100 nM | 
8 | COc1c(N2CC(Nc3nnc(C4CC5(CCC5)C4)o3)C2)ccc(C2CCC(=O)NC2=O)c1F (centres unmarked) [Compound 94, 3-(2-fluoro-3-methoxy-4-(3-((5-(spiro[3.3]heptan-2-yl)-1,3,4-oxadiazol-2-yl)amino)azetidin-1-yl)phenyl)piperidine-2,6-dione] | > 80% | 100 to 1000 nM | 
9 | CN(C(=O)N1CC(OC(=O)NC2(C(F)(F)F)CN(c3cc(F)c(C4CCC(=O)NC4=O)c(F)c3)C2)C1)C1CC1 (centres unmarked) [Compound 11, 1-(cyclopropyl(methyl)carbamoyl)azetidin-3-yl (1-(4-(2,6-dioxopiperidin-3-yl)-3,5-difluorophenyl)-3-(trifluoromethyl)azetidin-3-yl)carbamate] | 50 to 80% | ≤ 100 nM | 
10 | Cc1ccc(N2CC(OC(=O)NC3CN(c4cc(F)c(C5CCC(=O)NC5=O)c(F)c4)C3)C2)nc1 (centres unmarked) [Compound 79, 1-(5-methylpyridin-2-yl)azetidin-3-yl (1-(4-(2,6-dioxopiperidin-3-yl)-3,5-difluorophenyl)azetidin-3-yl)carbamate] | 50 to 80% | ≤ 100 nM | 
11 | Cn1nccc1N1CC(OC(=O)NC2CN(c3cc(F)c(C4CCC(=O)NC4=O)c(F)c3)C2)C1 (centres unmarked) [Compound 7, 1-(1-methyl-1H-pyrazol-5-yl)azetidin-3-yl (1-(4-(2,6-dioxopiperidin-3-yl)-3,5-difluorophenyl)azetidin-3-yl)carbamate] | 10 to 50% | ≤ 100 nM | 
12 | O=C1CCC(c2c(F)cc(N3CC(NC(=O)OC4CN(C(=O)N5CCC56CCC6)C4)C3)cc2F)C(=O)N1 (centres unmarked) [Compound 33, 1-(1-azaspiro[3.3]heptane-1-carbonyl)azetidin-3-yl (1-(4-(2,6-dioxopiperidin-3-yl)-3,5-difluorophenyl)azetidin-3-yl)carbamate] | 50 to 80% | ≤ 100 nM | 
13 | O=C1CCC(c2ccc(N3CC(NC(=O)OCC4CC5(CCC5)C4)C3)cc2)C(=O)N1 (centres unmarked) [Compound 62, spiro[3.3]heptan-2-ylmethyl (1-(4-(2,6-dioxopiperidin-3-yl)phenyl)azetidin-3-yl)carbamate] | > 80% | 100 to 1000 nM | 
14 | CN(C(=O)C12CC(OC(=O)NC3CN(c4cc(F)c(C5CCC(=O)NC5=O)c(F)c4)C3)(C1)C2)c1ccc(F)cc1 (centres unmarked) [Compound 132, 3-((4-fluorophenyl)(methyl)carbamoyl)bicyclo[1.1.1]pentan-1-yl (1-(4-(2,6-dioxopiperidin-3-yl)-3,5-difluorophenyl)azetidin-3-yl)carbamate] | 50 to 80% | ≤ 100 nM | 
15 | O=C1CCC(c2c(F)cc(N3CC(NC(=O)OC4CN(C(=O)N5Cc6ccccc6C5)C4)C3)cc2F)C(=O)N1 (centres unmarked) [Compound 5, 1-(isoindoline-2-carbonyl)azetidin-3-yl (1-(4-(2,6-dioxopiperidin-3-yl)-3,5-difluorophenyl)azetidin-3-yl)carbamate] | 50 to 80% | ≤ 100 nM | 
16 | COC12CC(c3nnc(N[C@H]4CN(c5cc(F)c(C6CCC(=O)NC6=O)c(F)c5)[C@@H]4C)o3)(C1)C2 (stereo partly drawn) [Compound 139, 3-(2,6-difluoro-4-((2R,3S)-3-((5-(3-methoxybicyclo[1.1.1]pentan-1-yl)-1,3,4-oxadiazol-2-yl)amino)-2-methylazetidin-1-yl)phenyl)piperidine-2,6-dione] | 50 to 80% | 100 to 1000 nM | 
17 | COc1c(N2CC(NC(=O)OCC3CC4(CCC4)C3)C2)ccc(C2CCC(=O)NC2=O)c1Cl (centres unmarked) [Compound 63, spiro[3.3]heptan-2-ylmethyl (1-(3-chloro-4-(2,6-dioxopiperidin-3-yl)-2-methoxyphenyl)azetidin-3-yl)carbamate] | > 80% | 100 to 1000 nM | 
18 | O=C1CCC(c2c(F)cc(N3CC(NC(=O)OC4CN(C(=O)N5CCc6ccccc65)C4)C3)cc2F)C(=O)N1 (centres unmarked) [Compound 9, 1-(indoline-1-carbonyl)azetidin-3-yl (1-(4-(2,6-dioxopiperidin-3-yl)-3,5-difluorophenyl)azetidin-3-yl)carbamate] | > 80% | ≤ 100 nM | 
19 | CN(C(=O)N1CC(OC(=O)NC2CN(c3cc(F)c(C4CCC(=O)NC4=O)c(F)c3)C2)C1)c1ccc(Cl)cc1 (centres unmarked) [Compound 138, 1-((4-chlorophenyl)(methyl)carbamoyl)azetidin-3-yl (1-(4-(2,6-dioxopiperidin-3-yl)-3,5-difluorophenyl)azetidin-3-yl)carbamate] | 50 to 80% | ≤ 100 nM | 
20 | O=C1CCC(c2c(F)cc(N3CC(NC(=O)OC4CN(c5ccccn5)C4)C3)cc2F)C(=O)N1 (centres unmarked) [Compound 83, 1-(pyridin-2-yl)azetidin-3-yl (1-(4-(2,6-dioxopiperidin-3-yl)-3,5-difluorophenyl)azetidin-3-yl)carbamate] | 50 to 80% | ≤ 100 nM | 
21 | CN(C(=O)N1CC[C@H](OC(=O)NC2CN(c3cc(F)c(C4CCC(=O)NC4=O)c(F)c3)C2)C1)C1CC1 (stereo partly drawn) [Compound 16, (S)-1-(cyclopropyl(methyl)carbamoyl)pyrrolidin-3-yl (1-(4-(2,6-dioxopiperidin-3-yl)-3,5-difluorophenyl)azetidin-3-yl)carbamate] | 10 to 50% | ≤ 100 nM | 
22 | CN(C(=O)C12CC(OC(=O)NC3CN(c4cc(F)c(C5CCC(=O)NC5=O)c(F)c4)C3)(C1)C2)c1cccc(C#N)c1 (centres unmarked) [Compound 123, 3-((3-cyanophenyl)(methyl)carbamoyl)bicyclo[1.1.1]pentan-1-yl (1-(4-(2,6-dioxopiperidin-3-yl)-3,5-difluorophenyl)azetidin-3-yl)carbamate] | 10 to 50% | ≤ 100 nM | 
23 | O=C1CCC(c2c(F)cc(N3CC(NC(=O)OC4CN(C(=O)N5CCC5)C4)C3)cc2F)C(=O)N1 (centres unmarked) [Compound 30, 1-(azetidine-1-carbonyl)azetidin-3-yl (1-(4-(2,6-dioxopiperidin-3-yl)-3,5-difluorophenyl)azetidin-3-yl)carbamate] | 50 to 80% | ≤ 100 nM | 
24 | O=C1CC[C@H](c2c(F)cc(N3CC[C@@H](NC(=O)OCC4CC5(CCC5)C4)C3=O)cc2F)C(=O)N1 [Compound 54, spiro[3.3]heptan-2-ylmethyl ((R)-1-(4-((R)-2,6-dioxopiperidin-3-yl)-3,5-difluorophenyl)-2-oxopyrrolidin-3-yl)carbamate] | 50 to 80% | ≤ 100 nM | 
25 | CN(C)C(=O)N1CC(OC(=O)NC2CN(c3cc(F)c(C4CCC(=O)NC4=O)c(F)c3)C2)C1 (centres unmarked) [Compound 45, 1-(dimethylcarbamoyl)azetidin-3-yl (1-(4-(2,6-dioxopiperidin-3-yl)-3,5-difluorophenyl)azetidin-3-yl)carbamate] | 10 to 50% | ≤ 100 nM | 
26 | CC(C)(C)[Si](C)(C)O[C@H]1C[C@@H](OC(=O)NC2CN(c3cc(F)c(C4CCC(=O)NC4=O)c(F)c3)C2)C1 (some centres unmarked) [Compound 48] |  | ≤ 100 nM | > 80%
27 | O=C1CCC(c2c(F)cc(N3CC[C@@H](NC(=O)OCC4CC5(CCC5)C4)C3)cc2F)C(=O)N1 (stereo partly drawn) [Compound 64, spiro[3.3]heptan-2-ylmethyl ((3R)-1-(4-(2,6-dioxopiperidin-3-yl)-3,5-difluorophenyl)pyrrolidin-3-yl)carbamate] | > 80% | ≤ 100 nM | 
28 | O=C1CCC(c2c(F)cc(N3C[C@@H](NC(=O)OCC4CC5(CCC5)C4)CC3=O)cc2F)C(=O)N1 (stereo partly drawn) [Compound 57, spiro[3.3]heptan-2-ylmethyl ((3S)-1-(4-(2,6-dioxopiperidin-3-yl)-3,5-difluorophenyl)-5-oxopyrrolidin-3-yl)carbamate] | 50 to 80% | 100 to 1000 nM | 
